Experimental data reported in patent US20230017045A1, “PYRIDINE AND PYRIMIDINE CARBOXYLATE HERBICIDES AND METHODS OF USE THEREOF” (Dow AgroSciences LLC, priority 2017, published 2023).
Read-outs that look alike come from different tables or passages of the source.

System: test plant species
Experiment: Post-emergent herbicidal activity test (greenhouse, foliar spray, visual growth reduction)
Type: in vivo
Details: post-emergence, 336 h, 140 g ai/ha
Summary of the method: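 Visual percent injury (0-100) rated 14 d after treatment, relative to nontreated and solvent-blank plants. Test plants at first or second true leaf stage received an overhead track-sprayer application at 187 L/ha. Compounds were formulated in aqueous acetone/DMSO carrier containing crop oil concentrate and X-77 surfactant.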

[1] = ECHCG: barnyardgrass (Echinochloa crus-galli), 14 days after application, read-out: Visual Growth Reduction (%) 14 Days After Application, ECHCG
[2] = IPOHE: ivy-leaf morning glory (Ipomoea hederacea), 14 days after application, read-out: Visual Growth Reduction (%) 14 Days After Application, IPOHE
[3] = KCHSC: kochia (Bassia scoparia), 14 days after application, read-out: Visual Growth Reduction (%) 14 Days After Application, KCHSC
[4] = ORYSA: rice (Oryza sativa), 14 days after application, read-out: Visual Growth Reduction (%) 14 Days After Application, ORYSA
[5] = SETFA: giant foxtail (Setaria faberi), 14 days after application, read-out: Visual Growth Reduction (%) 14 Days After Application, SETFA
[6] = SORVU: grain sorghum (Sorghum vulgare), 14 days after application, read-out: Visual Growth Reduction (%) 14 Days After Application, SORVU
[7] = STEME: common chickweed (Stellaria media), 14 days after application, read-out: Visual Growth Reduction (%) 14 Days After Application, STEME
[8] = TRZAS: wheat, spring (Triticum aestivum), 14 days after application, read-out: Visual Growth Reduction (%) 14 Days After Application, TRZAS
[9] = blackgrass (Alopecurus myosuroides), 14 Days After Application, read-out: Visual Growth Reduction (%) ALOMY
[10] = canada thistle (Cirsium arvense), 14 Days After Application, read-out: Visual Growth Reduction (%) CIRAR
[11] = crabgrass (Digitaria sanguinalis), 14 Days After Application, read-out: Visual Growth Reduction (%) DIGSA
[12] = lambsquarters (Chenopodium album), 14 Days After Application, read-out: Visual Growth Reduction (%) CHEAL
[13] = redroot pigweed (Amaranthus retroflexus), 14 Days After Application, read-out: Visual Growth Reduction (%) AMARE
[14] = wild oat (Avena fatua), 14 Days After Application, read-out: Visual Growth Reduction (%) AVEFA
[15] = yellow nutsedge (Cyperus esculentus), 14 Days After Application, read-out: Visual Growth Reduction (%) CYPES
[16] = ALOMY: blackgrass (Alopecurus myosuroides), 14 days after application, read-out: Visual Growth Reduction (%) 14 Days After Application, ALOMY
[17] = AMARE: redroot pigweed (Amaranthus retroflexus), 14 days after application, read-out: Visual Growth Reduction (%) 14 Days After Application, AMARE
[18] = AVEFA: wild oat (Avena fatua), 14 days after application, read-out: Visual Growth Reduction (%) 14 Days After Application, AVEFA
[19] = CHEAL: lambsquarters (Chenopodium album), 14 days after application, read-out: Visual Growth Reduction (%) 14 Days After Application, CHEAL
[20] = CIRAR: canada thistle (Cirsium arvense), 14 days after application, read-out: Visual Growth Reduction (%) 14 Days After Application, CIRAR
[21] = CYPES: yellow nutsedge (Cyperus esculentus), 14 days after application, read-out: Visual Growth Reduction (%) 14 Days After Application, CYPES
[22] = DIGSA: crabgrass (Digitaria sanguinalis), 14 days after application, read-out: Visual Growth Reduction (%) 14 Days After Application, DIGSA

SMILES | pest or weed control at 140 g/ha [1] [%] | pest or weed control at 140 g/ha [2] [%] | pest or weed control at 140 g/ha [3] [%] | pest or weed control at 140 g/ha [4] [%] | pest or weed control at 140 g/ha [5] [%] | pest or weed control at 140 g/ha [6] [%] | pest or weed control at 140 g/ha [7] [%] | pest or weed control at 140 g/ha [8] [%] | pest or weed control at 140 g/ha [9] [%] | pest or weed control at 140 g/ha [10] [%] | pest or weed control at 140 g/ha [11] [%] | pest or weed control at 140 g/ha [12] [%] | pest or weed control at 140 g/ha [13] [%] | pest or weed control at 140 g/ha [14] [%] | pest or weed control at 140 g/ha [15] [%] | pest or weed control at 140 g/ha [16] [%] | pest or weed control at 140 g/ha [17] [%] | pest or weed control at 140 g/ha [18] [%] | pest or weed control at 140 g/ha [19] [%] | pest or weed control at 140 g/ha [20] [%] | further results
COC(=O)c1nc(-c2cc3nonc3cc2F)c(Cl)cc1Cl [F327, Methyl 3,5-dichloro-6-(6-fluorobenzo[c][1,2,5]oxadiazol-5-yl)picolinate] | 0 to 29 | 75 to 84 | 0 to 29 | 0 to 29 | 30 to 44 | 0 to 29 | 0 to 29 | 0 to 29 | 0 to 29 | 0 to 29 | 0 to 29 | 30 to 44 | 30 to 44 | 0 to 29 | 0 to 29 |  |  |  |  |  | 
COC(=O)c1nc(-c2cc(F)c(C(F)(F)F)cc2OC)ccc1Cl [F362, Methyl 3-chloro-6-(5-fluoro-2-methoxy-4-(trifluoromethyl)phenyl)picolinate] | 0 to 29 | 95 to 100 | 30 to 44 | 0 to 29 | 60 to 74 | 85 to 94 | 0 to 29 | 0 to 29 | 0 to 29 | 0 to 29 | 45 to 59 | 85 to 94 | 95 to 100 | 0 to 29 | 0 to 29 |  |  |  |  |  | 
O=C(O)c1nc(-c2ccc(SC(F)(F)F)cc2)ccc1Cl [F94, 3-Chloro-6-(4-((trifluoromethyl)thio)phenyl)picolinic acid] | 0 to 29 | 60 to 74 | 0 to 29 | 0 to 29 | 0 to 29 | 0 to 29 | 0 to 29 | 0 to 29 |  |  |  |  |  |  |  | 0 to 29 | 0 to 29 | 0 to 29 | 0 to 29 | 30 to 44 | pest or weed control at 140 g/ha [21]: 0 to 29%; pest or weed control at 140 g/ha [22]: 0 to 29%
O=C(O)c1nc(-c2ncc(Cl)cc2Cl)ccc1Cl [F195, 3′,5,5′-Trichloro-[2,2′-bipyridine]-6-carboxylic acid] | 75 to 84 | 95 to 100 | 60 to 74 | 30 to 44 | 60 to 74 | 85 to 94 | 0 to 29 | 45 to 59 |  |  |  |  |  |  |  | 0 to 29 | 95 to 100 | 30 to 44 | 95 to 100 | 0 to 29 | pest or weed control at 140 g/ha [21]: 0 to 29%; pest or weed control at 140 g/ha [22]: 60 to 74%
COc1c(Cl)ccc(-c2ccc(Cl)c(C(=O)O)n2)c1F [F78, 3-chloro-6-(4-chloro-2-fluoro-3-methoxyphenyl)picolinic acid] | 0 to 29 | 45 to 59 |  | 0 to 29 | 0 to 29 | 0 to 29 | 30 to 44 | 0 to 29 |  |  |  |  |  |  |  | 0 to 29 | 45 to 59 | 0 to 29 | 75 to 84 | 60 to 74 | pest or weed control at 140 g/ha [21]: 0 to 29%; pest or weed control at 140 g/ha [22]: 0 to 29%
COC(=O)c1nc(-c2ccc(N)cc2)c(F)cc1Cl [F247, Methyl 6-(4-aminophenyl)-3-chloro-5-fluoropicolinate] | 0 to 29 | 0 to 29 | 0 to 29 | 0 to 29 | 0 to 29 | 0 to 29 | 0 to 29 | 0 to 29 | 0 to 29 | 0 to 29 | 0 to 29 | 60 to 74 | 0 to 29 | 0 to 29 | 0 to 29 |  |  |  |  |  | 
COC(=O)c1nc(-c2ccc(C(F)(F)F)cc2OC)c(F)cc1Cl [F166, Methyl 3-chloro-5-fluoro-6-(2-methoxy-4-(trifluoromethyl)phenyl)picolinate] | 95 to 100 | 95 to 100 | 95 to 100 | 0 to 29 | 85 to 94 | 85 to 94 | 30 to 44 | 75 to 84 |  |  |  |  |  |  |  | 0 to 29 | 95 to 100 | 75 to 84 | 85 to 94 | 85 to 94 | pest or weed control at 140 g/ha [21]: 0 to 29%; pest or weed control at 140 g/ha [22]: 75 to 84%
COC(=O)c1nc(-c2ccc(C(F)(F)F)cc2Cl)ccc1[N+](=O)[O-] [F201, Methyl 6-(2-chloro-4-(trifluoromethyl)phenyl)-3-nitropicolinate] | 0 to 29 | 0 to 29 | 0 to 29 | 0 to 29 | 0 to 29 | 0 to 29 | 0 to 29 | 0 to 29 | 0 to 29 | 0 to 29 | 0 to 29 | 0 to 29 | 45 to 59 | 0 to 29 | 0 to 29 |  |  |  |  |  | 
COC(=O)c1nc(-c2ccc(C(F)(F)F)cc2Br)c(F)cc1F [F374, Methyl 6-(2-bromo-4-(trifluoromethyl)phenyl)-3,5-difluoropicolinate] | 75 to 84 | 95 to 100 | 75 to 84 | 45 to 59 | 85 to 94 | 95 to 100 | 0 to 29 | 60 to 74 | 45 to 59 | 95 to 100 | 85 to 94 | 95 to 100 | 95 to 100 | 45 to 59 | 0 to 29 |  |  |  |  |  | 
COc1c(Cl)ccc(-c2nc(C(=O)O)c(Cl)c(Cl)c2F)c1F [F73, 3,4-Dichloro-6-(4-chloro-2-fluoro-3-methoxyphenyl)-5-fluoropicolinic acid] | 0 to 29 |  |  | 0 to 29 | 0 to 29 | 0 to 29 | 0 to 29 | 0 to 29 |  |  |  |  |  |  |  | 0 to 29 | 0 to 29 | 0 to 29 | 95 to 100 | 0 to 29 | pest or weed control at 140 g/ha [21]: 0 to 29%; pest or weed control at 140 g/ha [22]: 0 to 29%
